Where a name gives a salt, the structure may show the parent alone.
What was measured:
Format in all cases: biochemical
Stromelysin = Stromelysin (Homo sapiens, UniProt P08254); experiment: MMP inhibition by particle concentration fluorescence technique (stromelysin); conditions: pH 7.5; 15 min enzyme preincubation; substrate 1-3 h at room temperature; read-out: MMP Inhibition Constants, Stromelysin Ki
Source text: An inhibitor binds to MMP enzymes prevents the degradation of a substrate of stromelysin, gelatinase, or collagenase. The substrate is attached with a fluorescein and a biotin. The intact substrate then binds to an avidin-coated particle via the biotin moiety. Once the particle is washed and dried, a fluorescent signal is generated since the fluorescent group is attached to the particle. Without an inhibitor present, the substrate is degraded by MMP enzymes and the fluorescein group is removed, therefore, no fluorescent signal can be detected. […] Serial two-fold dilutions of each compound are prepared. A concentrated, activated enzyme solution is transferred into each plate of the testing compounds, and the mixture is incubated at room temperature for 15 minutes.

Gelatinase = experiment: MMP inhibition by particle concentration fluorescence technique (gelatinase); conditions: pH 7.5; 15 min enzyme preincubation; substrate 1-3 h at room temperature; read-out: MMP Inhibition Constants, Gelatinase Ki
Experimental: (§1) Inhibitory activity is evaluated in one or more of the MMP enzymes (stromelysin, gelatinase, and collagenase) in vitro using a particle concentration fluorescence techniques. An inhibitor binds to MMP enzymes prevents the degradation of a substrate of stromelysin, gelatinase, or collagenase. The substrate is attached with a fluorescein and a biotin. The intact substrate then binds to an avidin-coated particle via the biotin moiety. Once the particle is washed and dried, a fluorescent signal is generated since the fluorescent group is attached to the particle. Without an inhibitor present, the substrate is degraded by MMP enzymes and the fluorescein group is removed, therefore, no fluorescent signal can be detected. Testing compounds are dissolved in DMSO to the desired concentration, then the solutions are diluted to 1:5 with MMP buffer (50 mM Tris-HCl, pH 7.5; 150 mM NaCl; 0.02% NAN3). Serial two-fold dilutions of each compound are prepared. A concentrated, activated enzyme solution is transferred into each plate of the testing compounds, and the mixture is incubated at room temperature for 15 minutes. Thawed MMP substrate is then added into all plates, and the plates are incubate in the dark for 1-3 hours at room temperature. At this point, the substrate mixture is reacted with 0.1% avidin-coated polystyrene particles.

Collagenase = biological target: T1, Collagenase (Homo sapiens, UniProt P03956); experiment: MMP inhibition by particle concentration fluorescence technique (collagenase); conditions: pH 7.5; 15 min enzyme preincubation; substrate 1-3 h at room temperature; read-out: MMP Inhibition Constants, Collagenase Ki
T1 sequence (P03956 100-469): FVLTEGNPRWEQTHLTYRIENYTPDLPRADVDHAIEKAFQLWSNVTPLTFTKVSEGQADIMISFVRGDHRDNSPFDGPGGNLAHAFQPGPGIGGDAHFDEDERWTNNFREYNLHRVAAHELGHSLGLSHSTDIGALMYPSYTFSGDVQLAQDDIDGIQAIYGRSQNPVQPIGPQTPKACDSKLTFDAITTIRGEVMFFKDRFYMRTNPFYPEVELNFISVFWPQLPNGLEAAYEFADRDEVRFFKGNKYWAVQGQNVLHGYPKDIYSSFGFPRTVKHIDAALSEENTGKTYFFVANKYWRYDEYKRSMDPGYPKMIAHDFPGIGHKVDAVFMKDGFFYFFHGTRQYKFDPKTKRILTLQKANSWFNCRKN
Experimental: as §1

Chain of Stromelysin (P08254 100-477): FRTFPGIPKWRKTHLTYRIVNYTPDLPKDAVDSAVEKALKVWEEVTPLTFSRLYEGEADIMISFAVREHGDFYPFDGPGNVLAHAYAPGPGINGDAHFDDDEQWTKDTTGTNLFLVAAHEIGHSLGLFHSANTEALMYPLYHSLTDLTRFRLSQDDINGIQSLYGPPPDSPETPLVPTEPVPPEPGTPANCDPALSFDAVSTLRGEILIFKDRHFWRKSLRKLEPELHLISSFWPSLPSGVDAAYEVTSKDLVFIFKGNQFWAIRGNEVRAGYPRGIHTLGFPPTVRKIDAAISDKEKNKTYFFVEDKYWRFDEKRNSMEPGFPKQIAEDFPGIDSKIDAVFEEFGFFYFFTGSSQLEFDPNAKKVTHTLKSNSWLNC

| Structure (SMILES) | Ki (Stromelysin) [nM] | Ki (Gelatinase) [nM] | Ki (Collagenase) [nM] |
| --- | --- | --- | --- |
| CNC(=O)[C@H](Cc1ccccc1)N1CC[C@@](CCC(C)C)(CC(=O)NO)C1=O [Example 34, [S-(R*,R*)]-N^3 -Hydroxy-N^1-methyl-3-(3-methylbutyl)-2-oxo-α^1-(phenylmethyl)-1,3-pyrrolidinediacetamide] | 4140 | 31 | 22 |
| CC(C)C[C@@]1(CC(=O)NO)CCN([C@@H](Cc2ccccc2)C(=O)N2CCOCC2)C1=O [Example 55, [S-(R*,R*)]-N-Hydroxy-3-(2-methylpropyl)-1-[2-(4-morpholinyl)-2-oxo-1-(phenylmethyl)ethyl]-2-oxo-3-pyrrolidineacetamide] | 1900 | 211 | 750 |
| CC(C)C[C@@]1([C@@H](CCN2Cc3ccc(F)cc3C2=O)C(=O)NO)CCN(CCc2ccccc2)C1=O [Example 87, [R-(R*,S*)]-6-Fluoro-1,3-dihydro-N-hydroxy-α-[3-(2-methylpropyl)-2-oxo-1-(2-phenylethyl)-3-pyrrolidinyl]-1-oxo-2H-isoindole-2-butanamide] | 91 | 4.88 | 230 |
| CC(C)C[C@@]1(CC(=O)NO)CCN([C@@H](Cc2ccccc2)C(=O)Nc2ccccc2)C1=O [Example 39, [S-(R*,R*)]-N^3 -Hydroxy-3-(2-methylpropyl)-2-oxo-N^1-phenyl-α^1-(phenylmethyl)-1,3-pyrrolidinediacetamide] | 101 | 75.9 | 5.81 |
| CC(C)C[C@@]1(CC(=O)NO)CCN([C@@H](Cc2ccccc2)C(=O)NC2CCNCC2)C1=O [Example 44, [S-(R*,R*)]-N^3 -Hydroxy-3-(2-methylpropyl)-2-oxo-α^1-(phenylmethyl)-N^1-(4-piperdinyl)-1,3-pyrrolidinediacetamide] | 4000 | 11 | 20.2 |
| CCCOc1ccc2c(c1)C(=O)N(CCC(C(=O)NO)C1(CC(C)C)CCN(CCc3ccccc3)C1=O)C2=O (stereo not drawn) [Example 62, N-Hydroxy-3-(2-methylpropyl)-2-oxo-1-(2-phenylethyl)-α-[2-(5-propyloxy-1,3-dihydro-1,3-dioxo-2H-isoindol-2-yl)ethyl]-3-pyrrolidineacetamide] | 369 | 310 | 55000 |
| CC(C)CC1(CC(=O)NO)CNN(CCc2ccccc2)C1=O (stereo not drawn) [Example 38, N-Hydroxyl-4-(2-methylpropyl)-5-oxo-1-(2-phenylethyl)-4-pyrazolidineacetamide monohydrochloride] | 31200 | 14500 | 13300 |
| CC(C)C[C@@]1([C@@H](CCN2C(=O)c3ccccc3C2=O)C(=O)NO)CCN(CCc2ccccc2)C1=O (relative stereo) [Example 4, α-[2-(1,3-Dihydro-1,3-dioxo-2H-isoindol-2-yl)ethyl]-N-hydroxy-3-(2-methylpropyl)-2-oxo-1-(2-phenylethyl)-3-pyrrolidineacetamide] |  | 204 | 5700 |
| CC(C)C[C@@]1([C@@H](CCNC(=O)c2ccc(-c3ccccc3)cc2)C(=O)NO)CCN(CCc2ccccc2)C1=O (relative stereo) [Example 79, α-[2-[(4-Biphenylcarbonyl)amino]ethyl]-N-hydroxy-3-(2-methylpropyl)-2-oxo-1-(2-phenylethyl)-3-pyrrolidineacetamide] | 38 | 1.77 | 339 |
| CC(C)C[C@@]1(CC(=O)NO)CCN([C@@H](Cc2ccccc2)C(=O)Nc2ccc(F)cc2)C1=O [Example 42, [S-(R*,R*)]-N^1-(4-Fluorophenyl)-N^3-hydroxy-3-(2-methylpropyl)-2-oxo-α^1-(phenylmethyl)-1,3-pyrrolidinediacetamide] | 25.5 | 5.4 | 2.44 |
| CC(C)C[C@@]1([C@@H](CCN2C(=O)c3ccc(F)cc3C2=O)C(=O)NO)CCN(CCc2ccccc2)C1=O [Example 63, [R-(R*,S*)]-5-Fluoro-1,3-dihydro-N-hydroxy-α-[3-(2-methylpropyl)-2-oxo-1-(2-phenylethyl)-3-pyrrolidinyl]-1,3-dioxo-2H-isoindole-2-butanamide] | 58 | 32 | 1500 |
| CC(C)C[C@@]1(CC(=O)NO)CCN(CCc2ccccc2)C1=O [Example 2, (3S)-N-Hydroxy-3-(2-methylpropyl)-2-oxo-1-(2-phenylethyl)-3-pyrrolidineacetamide] | 20200 | 3290 | 1040 |
| CC(C)C[C@@]1(CC(=O)NO)CCN([C@H](C(=O)Nc2ccccn2)C2CCCCC2)C1=O [Example 51, [S-(R*,R*)]-α^1 -Cyclohexyl-N^3-hydroxy-3-(2-methylpropyl)-2-oxo-N^1-2-pyridinyl-1,3-pyrrolidinediacetamide] | 84 | 23 | 42.2 |
| CC(C)C[C@@]1([C@@H](CCNC(=O)c2cccc(F)c2)C(=O)NO)CCN(CCc2ccc(F)cc2)C1=O (relative stereo) [Example 78, α-[2-[(3-Fluorobenzoyl)amino]ethyl]-1-[2-(4-fluorophenyl)ethyl]-N-hydroxy-3-(2-methylpropyl)-2-oxo-3-pyrrolidineacetamide] | 696 | 278 | 18 |
| CC(C)C[C@@]1([C@@H](CCN2C(=O)c3ccc([N+](=O)[O-])cc3C2=O)C(=O)NO)CCN(CCc2ccccc2)C1=O (relative stereo) [Example 11, N-Hydroxy-3-(2-methylpropyl)-α-[2-(5-nitro-1,3-dihydro-1,3-dioxo-2H-isoindol-2-yl)ethyl]-2-oxo-1-(2-phenylethyl)-3-pyrrolidineacetamide] | 1020 | 498 | 73 |
| CC(C)C[C@@]1(CC(=O)NO)CCN([C@@H](Cc2ccccc2)C(=O)NCc2ccccn2)C1=O [Example 40, [S-(R*,R*)]-N^3 -Hydroxy-3-(2-methylpropyl)-2-oxo-α^1-(phenylmethyl)-N^1-(2-pyridinylmethyl)-1,3-pyrrolidinediacetamide] | 1990 | 10.5 | 37 |
| CC(C)C[C@@]1([C@@H](CCN2C(=O)c3ccc(N)cc3C2=O)C(=O)NO)CCN(CCc2ccccc2)C1=O (relative stereo) [Example 9, α-[2-(5-Amino-1,3-dihydro-1,3-dioxo-2H-isoindol-2-yl)ethyl]-N-hydroxy-3-(2-methylpropyl)-2-oxo-1-(2-phenylethyl)-3-pyrrolidineacetamide] | 903 | 780 | 14300 |
| CC(C)C[C@@]1([C@@H](CCNS(=O)(=O)c2ccccc2)C(=O)NO)CCN(CCc2ccccc2)C1=O (relative stereo) [Example 83, N-Hydroxy-3-(2-methylpropyl)-2-oxo-1-(2-phenylethyl)-α-[2-[(phenylsulfonyl)amino]ethyl]-3-pyrrolidineacetamide] | 107 | 580 | 17000 |
| CC(C)CC1(CC(=O)NO)CCN(Cc2ccccc2)C1=O (stereo not drawn) [Example 23, N-Hydroxy-3-(2-methylpropyl)-2-oxo-1-(phenylmethyl)-3-pyrrolidineacetamide] | 4190 | 1560 | 453 |
| CC(C)CC1(C(C)C(=O)NO)CCN(CCc2ccccc2)C1=O (stereo not drawn) [Example 3, N-Hydroxy-α-methyl-3-(2-methylpropyl)-2-oxo-1-(2-phenylethyl)-3-pyrrolidineacetamide] | 10900 | 11700 | 4230 |
| CC(C)C[C@@]1([C@@H](CCN2C(=O)c3ccccc3C2=O)C(=O)NO)CCN(CCc2ccccc2)C1=O [Example 5, (3S)-α-[2-(1,3-Dihydro-1,3-dioxo-2H-isoindol-2-yl)ethyl]-N-hydroxy-3-(2-methylpropyl)-2-oxo-1-(2-phenylethyl)-3-pyrrolidineacetamide] |  | 115 | 4370 |
| CC(C)C[C@@]1([C@@H](CCNC(=O)c2cccc(F)c2)C(=O)NO)CCN(CCc2ccccc2)C1=O (relative stereo) [Example 77, α-[2-[(3-Fluorobenzoyl)amino]ethyl]-N-hydroxy-3-(2-methylpropyl)-2-oxo-1-(2-phenylethyl)-3-pyrrolidineacetamide] | 146 |  | 68.5 |

Source: US5712300A, “Hydroxamic acid derivatives useful for the treatment of diseases related to connective tissue degradation” (priority 1997, dated 1998)
